Type in all cases: biochemical
One test addresses ADAM17 (TACE) (Homo sapiens, UniProt P78536). The test is described as follows: TACE fluorometric inhibition assay (Enzo kit BML-AK310). Particulars: quenched fluorogenic peptide, ex/em 320/420 nm; read-out: TACE IC50 class. The method, boiled down:
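Kit-based TACE assay run per manufacturer's protocol, using quenched fluorogenic peptide Mca-PLAQAV-Dpa-RSSSR-NH2 whose cleavage raises Mca fluorescence. Signal read at ex/em 320/420 nm; IC50 (nM) derived from inhibition curves of normalized values.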

The target in the next test is T1, MMP13 (Homo sapiens, UniProt P45452).
T1 construct: purchased Enzo Life Sciences, Inc. BML-AK412
The test is described as follows: MMP-13 colorimetric inhibition assay (Enzo kit BML-AK412). Particulars: thiopeptide substrate, absorbance 415 nm; read-out: MMP 13 IC50 class. The method, boiled down: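 Thiopeptide chromogenic substrate (Ac-PLG-[2-mercapto-4-methylpentanoyl]-LG-OC2H5); MMP-13 hydrolysis of the thioester yields a thiol that reacts with DTNB, read at 415 nm. IC50 values (nM) derived from inhibition curves of normalized data.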

The target in another test is MMP9 (Homo sapiens, UniProt P14780). The test is described as follows: MMP-9 colorimetric inhibition assay (Enzo kit BML-AK410). Particulars: thiopeptide substrate, absorbance 415 nm; read-out: MMP 9 IC50 class. The method, boiled down: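 Colorimetric thioester-substrate assay: hydrolysis of Ac-PLG-[2-mercapto-4-methylpentanoyl]-LG-OC2H5 frees a thiol that reacts with DTNB, read at 415 nm. Run per kit protocol. IC50 (nM) taken from inhibition curves of normalized values.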
Chain of MMP9 (P14780 94-707): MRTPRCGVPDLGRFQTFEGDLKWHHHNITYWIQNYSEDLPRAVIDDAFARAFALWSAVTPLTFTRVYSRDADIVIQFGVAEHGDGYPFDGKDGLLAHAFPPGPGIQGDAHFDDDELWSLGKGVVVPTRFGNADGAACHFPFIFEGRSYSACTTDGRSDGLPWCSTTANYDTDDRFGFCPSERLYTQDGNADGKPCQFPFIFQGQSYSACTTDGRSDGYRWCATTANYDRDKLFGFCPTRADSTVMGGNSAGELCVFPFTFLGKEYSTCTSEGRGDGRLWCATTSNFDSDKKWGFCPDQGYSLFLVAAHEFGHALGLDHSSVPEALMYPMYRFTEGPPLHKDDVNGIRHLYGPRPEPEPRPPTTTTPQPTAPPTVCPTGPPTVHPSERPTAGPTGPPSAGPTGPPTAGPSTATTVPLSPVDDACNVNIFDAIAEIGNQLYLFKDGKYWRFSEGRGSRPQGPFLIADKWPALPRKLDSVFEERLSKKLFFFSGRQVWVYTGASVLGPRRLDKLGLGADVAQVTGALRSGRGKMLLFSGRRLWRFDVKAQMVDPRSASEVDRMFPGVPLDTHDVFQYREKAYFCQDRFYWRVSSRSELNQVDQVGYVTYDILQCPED

The next test concerns the target T2, ADAM10 (Homo sapiens, UniProt O14672).
T2 construct: purchased AnaSpec, Inc. AS-72226
T2 sequence (O14672 214-748): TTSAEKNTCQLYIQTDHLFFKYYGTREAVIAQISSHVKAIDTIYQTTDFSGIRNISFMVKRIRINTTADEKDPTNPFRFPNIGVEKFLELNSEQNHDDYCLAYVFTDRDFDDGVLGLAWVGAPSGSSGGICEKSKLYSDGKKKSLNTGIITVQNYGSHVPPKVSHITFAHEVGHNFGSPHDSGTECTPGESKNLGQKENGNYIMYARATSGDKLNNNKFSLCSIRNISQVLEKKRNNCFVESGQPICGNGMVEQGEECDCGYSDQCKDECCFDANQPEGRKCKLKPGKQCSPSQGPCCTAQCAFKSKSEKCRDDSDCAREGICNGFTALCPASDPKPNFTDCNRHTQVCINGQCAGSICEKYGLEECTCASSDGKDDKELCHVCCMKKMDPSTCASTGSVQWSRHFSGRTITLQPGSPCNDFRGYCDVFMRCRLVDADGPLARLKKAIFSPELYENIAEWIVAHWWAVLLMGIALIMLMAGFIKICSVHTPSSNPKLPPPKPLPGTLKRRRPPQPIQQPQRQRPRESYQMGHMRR
The test is described as follows: SensoLyte 520 ADAM10 fluorometric activity assay (AnaSpec AS-72226). Particulars: FRET peptide substrate, ex/em 495/520 nm; read-out: ADAM 10 IC50 class. The procedure:
The inhibitory activities of the compounds of the invention were assessed in 96-well microplate format using MMP1, MMP2, MMP9 and MMP13 colorimetric assay kits and TACE fluorometric assay kit from Enzo Life Sciences, Inc. The inhibitory effect of the compounds of the invention on ADAM10 activity were evaluated in 96-well microplate format using fluorometric assay from AnaSpec, Inc.
SensoLyte® 520 ADAM10 Activity Assay Kit (catalog #AS-72226) is a complete assay system designed to screen ADAM10 inhibitors using FRET-based peptide substrate containing the 5-FAM/QXL™ 520 fluorophore/quencher pair. The fluorescence of 5-FAM is quenched by QXL™ 520 and recovered upon cleavage of the peptide by active ADAM10.
The inhibitory activity of the compounds of the invention against ADAM10 was tested according to the manufacturer's assay protocol and the fluorescence was monitored at excitation/emission wavelengths=495 nm/520 nm using Tecan Infinite® 200 Pro F Nano^+ microplate reader.
The normalized values were analyzed using GraphPadPrism 9 for Windows (GraphPad Software, San Diego, CA, USA) software by plotting inhibition curves and determining the IC50 values (in nM).

A further test concerns the target T3, MMP2 (Homo sapiens, UniProt P08253).
T3 sequence (P08253 110-660): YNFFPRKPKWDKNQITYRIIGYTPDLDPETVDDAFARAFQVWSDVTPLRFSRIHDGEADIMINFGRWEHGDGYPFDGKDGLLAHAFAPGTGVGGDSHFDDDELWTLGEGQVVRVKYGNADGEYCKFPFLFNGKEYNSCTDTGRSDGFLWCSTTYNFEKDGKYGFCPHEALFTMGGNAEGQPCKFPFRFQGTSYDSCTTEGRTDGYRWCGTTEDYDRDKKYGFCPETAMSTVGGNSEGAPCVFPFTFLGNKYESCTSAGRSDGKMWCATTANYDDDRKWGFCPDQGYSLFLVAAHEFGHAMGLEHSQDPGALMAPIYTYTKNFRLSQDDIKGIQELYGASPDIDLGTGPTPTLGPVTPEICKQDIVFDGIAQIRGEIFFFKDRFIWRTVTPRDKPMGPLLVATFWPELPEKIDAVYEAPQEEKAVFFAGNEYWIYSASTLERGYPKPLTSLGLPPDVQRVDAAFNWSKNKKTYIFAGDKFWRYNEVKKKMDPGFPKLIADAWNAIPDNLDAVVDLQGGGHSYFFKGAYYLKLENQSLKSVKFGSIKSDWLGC
The experiment in a line: MMP-2 colorimetric inhibition assay (Enzo kit BML-AK408). Particulars: thiopeptide substrate, absorbance 415 nm; read-out: MMP 2 IC50 class. The method, boiled down:
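Cleavage of the thiopeptide Ac-PLG-[2-mercapto-4-methylpentanoyl]-LG-OC2H5 releases a sulfhydryl that reacts with DTNB, read at 415 nm per the kit protocol. IC50 values (nM) come from inhibition curves of normalized data.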

The target in the next test is T4, MMP1 (Homo sapiens, UniProt P03956).
T4 sequence (P03956 100-269 limits assumed): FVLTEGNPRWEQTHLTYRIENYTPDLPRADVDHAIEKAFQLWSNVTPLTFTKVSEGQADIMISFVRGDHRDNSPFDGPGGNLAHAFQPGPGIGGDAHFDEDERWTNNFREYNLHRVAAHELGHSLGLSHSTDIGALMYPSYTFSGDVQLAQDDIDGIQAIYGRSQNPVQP
The experiment in a line: MMP-1 colorimetric inhibition assay (Enzo kit BML-AK404). Particulars: thiopeptide substrate, absorbance 415 nm; read-out: MMP 1 IC50 class. The method, boiled down:
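Colorimetric kit run per manufacturer protocol. MMP-1 cleaves a thiopeptide substrate (Ac-PLG-[2-mercapto-4-methylpentanoyl]-LG-OC2H5); released thiol reacts with DTNB, monitored at 415 nm. IC50 (nM) from inhibition curves of normalized values.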

The IC50 is the concentration needed to halve the response being measured.

Bounds are passed on as bounds.

Chain of ADAM17 (TACE) (P78536 215-477 limits assumed): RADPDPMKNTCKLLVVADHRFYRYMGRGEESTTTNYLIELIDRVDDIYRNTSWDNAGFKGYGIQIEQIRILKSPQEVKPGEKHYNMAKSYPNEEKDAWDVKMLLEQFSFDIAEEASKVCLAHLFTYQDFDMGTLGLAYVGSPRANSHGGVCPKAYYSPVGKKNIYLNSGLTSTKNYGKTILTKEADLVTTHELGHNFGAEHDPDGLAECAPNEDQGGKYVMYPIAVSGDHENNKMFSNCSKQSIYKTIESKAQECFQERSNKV

With `COCCOC(=O)N1[C@@H]2CC[C@H]1[C@H](C(=O)NO)N(S(=O)(=O)c1ccc(Oc3cnn(-c4ccccc4)c3)nc1)C2` [Example 39, 2-methoxyethyl (1S,2R,5R)-2-(hydroxycarbamoyl)-3-((6-((1-phenyl-1H-pyrazol-4-yl)oxy)-pyridin-3-yl)sulfonyl)-3,8-diazabicyclo-[3.2.1]octane-8-carboxylate], the IC50 at ADAM17 (TACE) was 50 to 1000 nM; at MMP13, under 50 nM; at MMP9, under 50 nM; on ADAM10, over 10000 nM; on MMP2, under 50 nM; at MMP1, 50 to 1000 nM.
Take `CC(=O)N1[C@@H]2CC[C@H]1[C@H](C(=O)NO)N(S(=O)(=O)c1ccc(Oc3ccc(OCC(F)(F)F)cc3)nc1)C2` [Example 62, (1S,2R,5R)-8-acetyl-N-hydroxy-3-((6-(4-(2,2,2-trifluoro-ethoxy)phenoxy)-pyridin-3-yl)-sulfonyl)-3,8-diazabicyclo[3.2.1]-octane-2-carboxamide]: the IC50 on ADAM17 (TACE) is over 10000 nM; on MMP13 it was under 50 nM; at MMP9, under 50 nM; at ADAM10, over 10000 nM; on MMP2 it was under 50 nM; on MMP1, 1000 to 10000 nM.
`CCC(=O)N1[C@@H]2CC[C@H]1[C@H](C(=O)NO)N(S(=O)(=O)c1ccc(Oc3ccc(OC(F)(F)F)cc3)nc1)C2` [Example 55, (1S,2R,5R)-N-hydroxy-8-propionyl-3-((6-(4-(trifluoromethoxy)-phenoxy)pyridin-3-yl)sulfonyl)-3,8-diazabicyclo[3.2.1]-octane-2-carboxamide]: the IC50 is 1000 to 10000 nM on ADAM17 (TACE); under 50 nM at MMP13; under 50 nM at MMP9; over 10000 nM at ADAM10; under 50 nM at MMP2; 1000 to 10000 nM on MMP1.
As for `COCCOC(=O)N1[C@@H]2CC[C@H]1[C@H](C(=O)NO)N(S(=O)(=O)c1ccc(Oc3ccc(F)cn3)cc1)C2` [Example 7, 2-methoxyethyl (1S,2R,5R)-3-((4-((5-fluoropyridin-2-yl)oxy)phenyl)-sulfonyl)-2-(hydroxycarbamoyl)-3,8-diazabicyclo-[3.2.1]octane-8-carboxylate], the IC50 is 50 to 1000 nM on ADAM17 (TACE); under 50 nM on MMP13; under 50 nM on MMP9; 50 to 1000 nM on ADAM10; under 50 nM at MMP2; 50 to 1000 nM on MMP1.
In the case of `COCCOC(=O)N1[C@@H]2CC[C@H]1[C@H](C(=O)NO)N(S(=O)(=O)c1ccc(Oc3ccc(Cl)c(F)c3)nc1)C2` [Example 9, 2-methoxyethyl (1S,2R,5R)-3-((6-(4-chloro-3-fluoro-phenoxy)pyridin-3-yl)sulfonyl)-2-(hydroxycarbamoyl)-3,8-diaza-bicyclo[3.2.1]octane-8-carboxylate], the IC50 on ADAM17 (TACE) was 50 to 1000 nM; on MMP13, under 50 nM; at MMP9, under 50 nM; on ADAM10, 1000 to 10000 nM; at MMP2, under 50 nM; on MMP1, 50 to 1000 nM.
With `COCCOC(=O)N1[C@@H]2CC[C@H]1[C@H](C(=O)NO)N(S(=O)(=O)c1ccc(Oc3ccc(Cl)cc3)nc1)C2` [Example 8, 2-methoxyethyl (1S,2R,5R)-3-((6-(4-chlorophenoxy)pyridin-3-yl)sulfonyl)-2-(hydroxycarbamoyl)-3,8-diazabicyclo-[3.2.1]octane-8-carboxylate], the IC50 at ADAM17 (TACE) was 50 to 1000 nM; on MMP13 it was under 50 nM; on MMP9 it was under 50 nM; on ADAM10, 1000 to 10000 nM; on MMP2 it was under 50 nM; at MMP1, 50 to 1000 nM.
Take `COCCOC(=O)N1[C@@H]2CC[C@H]1[C@H](C(=O)NO)N(S(=O)(=O)c1ccc(Oc3cnn(C)c3)c(F)c1)C2` [Example 41, 2-methoxyethyl (1S,2R,5R)-3-((3-fluoro-4-((1-methyl-1H-pyrazol-4-yl)oxy)phenyl)sulfonyl)-2-(hydroxycarbamoyl)-3,8-diazabicyclo[3.2.1]octane-8-carboxylate]: the IC50 at ADAM17 (TACE) was 50 to 1000 nM; on MMP13, under 50 nM; at MMP9, under 50 nM; on ADAM10 it was 50 to 1000 nM; at MMP2 it was under 50 nM; on MMP1, under 50 nM.
Regarding `COCCOC(=O)N1[C@@H]2CC[C@H]1[C@H](C(=O)NO)N(S(=O)(=O)c1ccc(Oc3ccc(OC(F)(F)F)cc3)nc1)C2` [Example 19, 2-methoxyethyl (1S,2R,5R)-2-(hydroxycarbamoyl)-3-((6-(4-(trifluoro-methoxy)phenoxy)-pyridin-3-yl)-sulfonyl)-3,8-diaza-bicyclo[3.2.1]octane-8-carboxylate], the IC50 on ADAM17 (TACE) is 1000 to 10000 nM; at MMP13 it was under 50 nM; on MMP9 it was under 50 nM; on ADAM10, over 10000 nM; on MMP2, under 50 nM; at MMP1, 1000 to 10000 nM.
As to `COCCOC(=O)N1[C@@H]2CC[C@H]1[C@H](C(=O)NO)N(S(=O)(=O)c1ccc(Oc3ccc(F)cc3F)nc1)C2` [Example 21, 2-methoxyethyl (1S,2R,5R)-3-((6-(2,4-difluoro-phenoxy)pyridin-3-yl)sulfonyl)-2-(hydroxycarbamoyl)-3,8-diazabicyclo-[3.2.1]octane-8-carboxylate], the IC50 on ADAM17 (TACE) is 50 to 1000 nM; on MMP13, under 50 nM; at MMP9, under 50 nM; at ADAM10, over 10000 nM; on MMP2 it was under 50 nM; on MMP1 it was 50 to 1000 nM.
Regarding `COCCOC(=O)N1[C@@H]2CC[C@H]1[C@H](C(=O)NO)N(S(=O)(=O)c1ccc(Oc3ccc(F)cc3)nc1)C2` [Example 1, (1S,2R,5R)-2-methoxyethyl 3-((6-(4-fluorophenoxy)pyridin-3-yl)sulfonyl)-2-(hydroxycarbamoyl)-3,8-diazabicyclo[3.2.1]octane-8-carboxylate], the half-maximal inhibitory concentration (IC50) at ADAM17 (TACE) is 1000 to 10000 nM; at MMP13, under 50 nM; at MMP9, under 50 nM; on ADAM10, 1000 to 10000 nM; on MMP2 it was under 50 nM; on MMP1, 50 to 1000 nM.

(Values after patent US20250215010A1, “DIAZABICYCLOOCTANE DERIVATIVES USEFUL AS MATRIX METALLOPROTEINASE INHIBITORS” (VASA THERAPEUTICS SPOLKA Z OGRANICZONA ODPOWIEDZIALNOSCIA, priority 2022, published 2025).)
